Measurements taken from PubChem BioAssay AID1918991 (Molecular Pharmacology Branch, DTP, NCI, 2023).

System: 186277-243-T-J2-PDC complex spheroid growth
Assay: Anticancer human tumor 186277-243-T-J2-PDC patient-derived colon adenocarcinoma cell line growth inhibition [AhR]
Conditions: for IC50: curve of first compound; for viability, T/C: stronger effect = lower value
Summary of the method: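 Agents were dosed in half-log steps down from roughly clinical Cmax, or from 10 microM where Cmax was unknown, alone and with AhR antagonists. Read-out: percent test/control growth of tumor spheroids containing HUVEC and MSC stromal cells.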

[1] = second compound 0.1 µM, first compound 0.0316 µM
[2] = second compound 0.1 µM, first compound 0.1 µM
[3] = second compound 0.1 µM, first compound 0.316 µM
[4] = second compound 0.1 µM, first compound 1 µM
[5] = second compound 0.1 µM, first compound 3.16 µM
[6] = second compound 0.1 µM, first compound 10 µM
[7] = second compound 0.316 µM, first compound 0.0316 µM
[8] = second compound 0.316 µM, first compound 0.1 µM
[9] = second compound 0.316 µM, first compound 0.316 µM
[10] = second compound 0.316 µM, first compound 1 µM
[11] = second compound 0.316 µM, first compound 3.16 µM
[12] = second compound 0.316 µM, first compound 10 µM
[13] = second compound 1 µM, first compound 0.0316 µM
[14] = second compound 1 µM, first compound 0.1 µM
[15] = second compound 1 µM, first compound 0.316 µM
[16] = second compound 1 µM, first compound 1 µM
[17] = second compound 1 µM, first compound 3.16 µM
[18] = second compound 1 µM, first compound 10 µM
[19] = second compound 3.16 µM, first compound 0.0316 µM
[20] = second compound 3.16 µM, first compound 0.1 µM
[21] = second compound 3.16 µM, first compound 0.316 µM
[22] = second compound 3.16 µM, first compound 1 µM
[23] = second compound 3.16 µM, first compound 3.16 µM
[24] = second compound 3.16 µM, first compound 10 µM
[25] = second compound 10 µM, first compound 0.0316 µM
[26] = second compound 10 µM, first compound 0.1 µM
[27] = second compound 10 µM, first compound 0.316 µM
[28] = second compound 10 µM, first compound 1 µM
[29] = second compound 10 µM, first compound 3.16 µM
[30] = second compound 10 µM, first compound 10 µM
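Further: spheroids exposed to compounds for seven days before the viability read.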
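Wherever viability, T/C is given: luminescent signal used as a stand-in for viable cell amount; 100% = DMSO vehicle control wells.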

## CC(C)c1c(-c2ccccc2)nc2c(C#N)c[nH]n2c1=O + Cc1cncc(-c2nc(NCCc3c[nH]c4ccccc34)c3ncn(C(C)C)c3n2)c1
Second compound 0.1 µM
  IC50: > 10 µM
Second compound 0.316 µM
  IC50: > 10 µM
Second compound 1 µM
  IC50: > 10 µM
Second compound 3.16 µM
  IC50: > 10 µM
Second compound 10 µM
  IC50: < 0.0316 µM
[1]
  viability, T/C: 127%
[2]
  viability, T/C: 105%
[3]
  viability, T/C: 101%
[4]
  viability, T/C: 98.3%
[5]
  viability, T/C: 95.8%
[6]
  viability, T/C: 96.5%
[7]
  viability, T/C: 102%
[8]
  viability, T/C: 99.6%
[9]
  viability, T/C: 101%
[10]
  viability, T/C: 98.8%
[11]
  viability, T/C: 95%
[12]
  viability, T/C: 108%
[13]
  viability, T/C: 107%
[14]
  viability, T/C: 101%
[15]
  viability, T/C: 98.5%
[16]
  viability, T/C: 103%
[17]
  viability, T/C: 94.4%
[18]
  viability, T/C: 102%
[19]
  viability, T/C: 109%
[20]
  viability, T/C: 111%
[21]
  viability, T/C: 96.3%
[22]
  viability, T/C: 96.1%
[23]
  viability, T/C: 108%
[24]
  viability, T/C: 102%
[25]
  viability, T/C: 26%
[26]
  viability, T/C: 22.7%
[27]
  viability, T/C: 20.5%
[28]
  viability, T/C: 25.6%
[29]
  viability, T/C: 23.9%
[30]
  viability, T/C: 34.4%

## CC1COCCN1c1cc(-c2ccnn2C)c2ccnc(-c3ccn[nH]3)c2n1 (stereo not given) + Cc1cncc(-c2nc(NCCc3c[nH]c4ccccc34)c3ncn(C(C)C)c3n2)c1
Second compound 0.1 µM
  IC50: 0.0798 µM
Second compound 0.316 µM
  IC50: 0.0793 µM
Second compound 1 µM
  IC50: 0.0809 µM
Second compound 3.16 µM
  IC50: 0.0729 µM
Second compound 10 µM
  IC50: < 0.00316 µM
Second compound 0.1 µM, first compound 0.00316 µM
  viability, T/C: 99%
Second compound 0.1 µM, first compound 0.01 µM
  viability, T/C: 106%
[1]
  viability, T/C: 112%
[2]
  viability, T/C: 36.4%
[3]
  viability, T/C: 7.55%
[4]
  viability, T/C: 3.82%
Second compound 0.316 µM, first compound 0.00316 µM
  viability, T/C: 97.4%
Second compound 0.316 µM, first compound 0.01 µM
  viability, T/C: 106%
[7]
  viability, T/C: 122%
[8]
  viability, T/C: 35.2%
[9]
  viability, T/C: 8.4%
[10]
  viability, T/C: 4.07%
Second compound 1 µM, first compound 0.00316 µM
  viability, T/C: 107%
Second compound 1 µM, first compound 0.01 µM
  viability, T/C: 90%
[13]
  viability, T/C: 119%
[14]
  viability, T/C: 37.4%
[15]
  viability, T/C: 7.76%
[16]
  viability, T/C: 5.82%
Second compound 3.16 µM, first compound 0.00316 µM
  viability, T/C: 95.3%
Second compound 3.16 µM, first compound 0.01 µM
  viability, T/C: 105%
[19]
  viability, T/C: 116%
[20]
  viability, T/C: 29%
[21]
  viability, T/C: 9.02%
[22]
  viability, T/C: 5.27%
Second compound 10 µM, first compound 0.00316 µM
  viability, T/C: 25.3%
Second compound 10 µM, first compound 0.01 µM
  viability, T/C: 26.8%
[25]
  viability, T/C: 13.8%
[26]
  viability, T/C: 6.13%
[27]
  viability, T/C: 3.4%
[28]
  viability, T/C: 2.65%

## COc1ccc([C@@H](O)c2cc(-c3ncnc4cc(N5CCOCC5)ccc34)c(F)cc2Cl)nn1 + Cc1cncc(-c2nc(NCCc3c[nH]c4ccccc34)c3ncn(C(C)C)c3n2)c1
Second compound 0.1 µM
  IC50: > 10 µM
Second compound 0.316 µM
  IC50: > 10 µM
Second compound 1 µM
  IC50: > 10 µM
Second compound 3.16 µM
  IC50: > 10 µM
Second compound 10 µM
  IC50: < 0.0316 µM
[1]
  viability, T/C: 103%
[2]
  viability, T/C: 102%
[3]
  viability, T/C: 104%
[4]
  viability, T/C: 116%
[5]
  viability, T/C: 94.2%
[6]
  viability, T/C: 66.2%
[7]
  viability, T/C: 109%
[8]
  viability, T/C: 102%
[9]
  viability, T/C: 98.3%
[10]
  viability, T/C: 104%
[11]
  viability, T/C: 114%
[12]
  viability, T/C: 64.4%
[13]
  viability, T/C: 103%
[14]
  viability, T/C: 103%
[15]
  viability, T/C: 113%
[16]
  viability, T/C: 113%
[17]
  viability, T/C: 99.4%
[18]
  viability, T/C: 68.7%
[19]
  viability, T/C: 94%
[20]
  viability, T/C: 107%
[21]
  viability, T/C: 115%
[22]
  viability, T/C: 106%
[23]
  viability, T/C: 101%
[24]
  viability, T/C: 55.7%
[25]
  viability, T/C: 23.3%
[26]
  viability, T/C: 21.7%
[27]
  viability, T/C: 20.6%
[28]
  viability, T/C: 26%
[29]
  viability, T/C: 16.6%
[30]
  viability, T/C: 13.2%

## O=C(C=Cn1cnc(-c2cc(C(F)(F)F)cc(C(F)(F)F)c2)n1)NNc1cnccn1 + Cc1cncc(-c2nc(NCCc3c[nH]c4ccccc34)c3ncn(C(C)C)c3n2)c1
Second compound 0.1 µM
  IC50: 0.43 µM
Second compound 0.316 µM
  IC50: 0.456 µM
Second compound 1 µM
  IC50: 0.482 µM
Second compound 3.16 µM
  IC50: 0.38 µM
Second compound 10 µM
  IC50: 0.0404 µM
Second compound 0.1 µM, first compound 0.00949 µM
  viability, T/C: 103%
Second compound 0.1 µM, first compound 0.03 µM
  viability, T/C: 111%
Second compound 0.1 µM, first compound 0.0949 µM
  viability, T/C: 114%
Second compound 0.1 µM, first compound 0.3 µM
  viability, T/C: 67.2%
Second compound 0.1 µM, first compound 0.949 µM
  viability, T/C: 13.3%
Second compound 0.1 µM, first compound 3 µM
  viability, T/C: 4.12%
Second compound 0.316 µM, first compound 0.00949 µM
  viability, T/C: 110%
Second compound 0.316 µM, first compound 0.03 µM
  viability, T/C: 105%
Second compound 0.316 µM, first compound 0.0949 µM
  viability, T/C: 124%
Second compound 0.316 µM, first compound 0.3 µM
  viability, T/C: 73.2%
Second compound 0.316 µM, first compound 0.949 µM
  viability, T/C: 13.6%
Second compound 0.316 µM, first compound 3 µM
  viability, T/C: 4.58%
Second compound 1 µM, first compound 0.00949 µM
  viability, T/C: 109%
Second compound 1 µM, first compound 0.03 µM
  viability, T/C: 123%
Second compound 1 µM, first compound 0.0949 µM
  viability, T/C: 123%
Second compound 1 µM, first compound 0.3 µM
  viability, T/C: 75.2%
Second compound 1 µM, first compound 0.949 µM
  viability, T/C: 15.4%
Second compound 1 µM, first compound 3 µM
  viability, T/C: 5.33%
Second compound 3.16 µM, first compound 0.00949 µM
  viability, T/C: 117%
Second compound 3.16 µM, first compound 0.03 µM
  viability, T/C: 116%
Second compound 3.16 µM, first compound 0.0949 µM
  viability, T/C: 127%
Second compound 3.16 µM, first compound 0.3 µM
  viability, T/C: 60.1%
Second compound 3.16 µM, first compound 0.949 µM
  viability, T/C: 15.1%
Second compound 3.16 µM, first compound 3 µM
  viability, T/C: 6.75%
Second compound 10 µM, first compound 0.00949 µM
  viability, T/C: 67.5%
Second compound 10 µM, first compound 0.03 µM
  viability, T/C: 60.2%
Second compound 10 µM, first compound 0.0949 µM
  viability, T/C: 21.6%
Second compound 10 µM, first compound 0.3 µM
  viability, T/C: 7.78%
Second compound 10 µM, first compound 0.949 µM
  viability, T/C: 3.76%
Second compound 10 µM, first compound 3 µM
  viability, T/C: 3.02%
